According to patent publication US20150265514A1, “METHODS OF INHIBITING HAIR GROWTH” (NOGRA PHARMA LIMITED, priority 2012, published 2015):
“Also recorded” adds a separate entry of the source.

Assays:
keratin K15 = experiment: K15 quantitative immunohistochemistry in organ-cultured human scalp hair follicles; type: cell-based; conditions: human scalp HF organ culture; for Keratin-15 immunoreactivity: all concentrations tested, pooled data
Protocol: (§1) Normal human scalp skin was obtained from 6 women undergoing routine face-lift surgery after informed consent. All experiments were performed according to Helsinki guidelines, with appropriate ethics committee approval.
(§2) Normally pigmented anagen VI hair follicles (HFs) (grey/white HFs were excluded from the study) were microdissected from normal human scalp skin and organ cultured following the Philpott model. Compound A or vehicle was administered once for each change of medium (i.e. every 48 h/72 h).
To investigate keratin K15 expression, the tyramide signal amplification method was used as previously described (Kloepper et al., 2008). Briefly, acetone fixed cryosections were washed three times for 5 min using TNT (Tris-HCL NaCl Tween) buffer (0.1 mol/1 Tris-HCl, pH 7.5; containing 0.15 mol/1 NaCl and 0.05% Tween 20). Next, horseradish peroxidase was blocked by washing with 3% H2O2 in phosphate-buffered saline (PBS) for 15 min. Preincubation was performed with the incubation of avidin and biotin for 15 min and 5% goat normal serum in TNT for 30 min with washing steps in between. Mouse anti-human K15 (clone LHK15, Chemicon, Billerica, USA) was diluted in TNT and incubated overnight at 4° C. followed by a biotinylated secondary antibody goat anti-mouse (1:200 in TNT) for 45 min at RT. Next, streptavidin horseradish peroxidase (TSA kit; Perkin-Elmer, Boston, Mass., USA) was administered (1:100 in TNT) for 30 min at RT. […] The intensity of the immunostaining was quantified by ImageJ software (National Institutes of Health). The staining intensity of defined reference regions in the HF was measured and compared between control and N Compound A-treated groups. The percentage of K15-positive cells in comparison to the total amount of cells in the ORS was calculated.
Statistical analysis was performed using a two-tailed Student's t-test for unpaired samples. […] In order to avoid data distortion by individual experiments, rigid exclusion criteria were defined that allowed to exclude one individual experiment (out of 5-6) per read-out parameter. […]

K19 = K19 quantitative immunohistochemistry in organ-cultured human scalp hair follicles; type: cell-based; conditions: for Keratin 19 immunoreactivity: all concentrations tested
Protocol: as §1, §2
A previously described protocol was used to investigate K19 expression (Kloepper et al., 2008). Briefly, acetone-fixed cryosections were pre-treated with goat serum (10% in Tris-buffered saline, Dako). The sections were incubated first with primary antibodies against K19 (mouse anti-human: K19-1:10; overnight, at 4° C.; PROGEN, Heidelberg, Germany;) and then with FITC-labeled goat anti-mouse (1:200 in TBS, for 45 min, RT, Jackson ImmunoResearch) immunoglobulins as secondary antibodies. Counterstaining was performed with DAPI (Boehringer Mannheim, Mannheim, Germany). The intensity of this immunostaining was quantified by ImageJ software (National Institutes of Health). The staining intensity of defined reference regions in the HF was measured and compared between control and Compound A-treated groups. The percentage of K19-positive cells in comparison to the total amount of cells in the ORS was calculated.
Statistical analysis was performed using a two-tailed Student's t-test for unpaired samples. For meta-analysis purposes, a total of six assays (each with HFs from a different female individual) were run. […] In order to avoid data distortion by individual experiments, rigid exclusion criteria were defined that allowed to exclude one individual experiment (out of 5-6) per read-out parameter. Since these exclusion criteria differed for each study parameter, different experiments (i.e. one out of 6, and one out of 5 in the case of keratin 19 analysis) were excluded for each assay parameter. The exclusion criteria were: (i) most extreme deviation from the results trend shown by the majority among the 6 experiments, in order to avoid data distortion by outliers (which can be affected e.g. by patient's medication, medical history etc.); and (ii) failure to meet minimal quality criteria.

[1] = tested on: anagen VI hair follicles (HFs); experiment: LDH activity in supernatant of hair follicle organ culture (cytotoxicity); type: cell-based, human; conditions: for LDH activity in the supernatant: 0.1 mM dose, day 6, pooled data
Protocol: as §2
(§3) Details regarding tissue specimen origin used in the present example are as described in Example 2 above.
LDH activity in the supernatant can serve as an indicator of cytotoxicity and was measured following the manufacturer's instructions (Cytotoxicity Detection Kit; Roche, Mannheim, Germany). The absorbance of the samples was measured at 490 nm using an ELISA plate-reader.
(§4) To evaluate apoptotic cells in colocalization with a proliferation marker Ki-67, a Ki-67/terminal dUTP nick-end labeling (TUNEL) double-staining method was used. Cryostat sections were fixed in paraformaldehyde and ethanol-acetic acid (2:1) and labeled with a digoxigenin-deoxy-UTP (ApopTag fluorescein in situ apoptosis detection kit; Intergen, Purchase, N.Y.) in the presence of terminal deoxynucleotidyl transferase, followed by incubation with a mouse anti-Ki-67 antiserum (1:20 in PBS overnight at 4 C; Dako, Glostrup, Denmark). TUNEL-positive cells were visualized by an antidigoxigenin fluorescein isothiocyanate-conjugated antibody (ApopTag kit), whereas Ki-67 was detected by a rhodamine-labeled goat antimouse antibody (Jackson ImmunoResearch, West Grove, Pa.). Negative controls were performed by omitting terminal deoxynucleotidyltransferase and the Ki-67 antibody. Counterstaining was performed with 4′,6-diamidino-2-phenylindole (DAPI) (Roche Molecular Biochemicals GmbH, Mannheim, Germany). Quantitative immunohistomorphometry was performed; Ki-67-, TUNEL-, or DAPI-positive cells were counted in a previously defined reference region of the HF matrix, and the percentage of Ki-67/TUNEL-positive cells were determined. […] In order to avoid data distortion by individual experiments, rigid exclusion criteria were defined that allowed to exclude one individual experiment (out of 5-6) per read-out parameter. […]

[2] = tested on: anagen VI hair follicles (HFs); experiment: Hair shaft elongation in hair follicle organ culture; type: cell-based, human
Protocol: as §2, §3
Hair shaft length measurements of HFs were performed on individual HFs using a Zeiss inverted binocular microscope with an eyepiece measuring graticule.
as §4, with “determined. Statistical analysis was performed using a two-tailed Student's t-test for unpaired samples.” for “determined.”

[3] = tested on: anagen VI hair follicles (HFs); experiment: HF cycle staging (anagen/catagen) in hair follicle organ culture; type: cell-based, human
Protocol: as §2, §3
HF cycle staging was carried out according to previously defined morphological criteria, and the percentage of HFs in anagen and early, mid, or late catagen was determined.
as §4, with “determined. Statistical analysis was performed using a two-tailed Student's t-test for unpaired samples.” for “determined.”

[4] = listed as N-acetyl-(R)-(−)-3-(4-aminophenyl)-2-methoxypropionic acid

CO[C@H](Cc1ccc(NC(C)=O)cc1)C(=O)O [Compound A, N-acetyl-(R)-(−)-3-(4-aminophenyl)-2-methoxypropionic acid]
Keratin-15 immunoreactivity (keratin K15): strongly stimulated
Keratin-15 immunoreactivity (keratin K15; [4]): stimulation
number of K15-positive cells (keratin K15): did not increase
Keratin 19 immunoreactivity (K19; human scalp HF organ culture, pooled data): strongly stimulated
Keratin 19 immunoreactivity (K19; human scalp HF organ culture, pooled data, listed as N-acetyl-(R)-(−)-3-(4-aminophenyl)-2-methoxypropionic acid): stimulation
number of K19-positive cells relative to control (K19; human scalp HF organ culture): stimulating effect
numbers of K19 positive cells (K19; low and high concentrations, pooled data): increased numbers
LDH activity in the supernatant [1]: slight increase
LDH activity in the supernatant [1, 4]: increase
HF toxicity under assay conditions ([1]; concluded from LDH activity): very low, if any
hair shaft elongation ([2]; high dose (1 mM), day 6, pooled data): slightly, but significantly, inhibited; also recorded: inhibits hair shaft elongation
hair shaft elongation ([2]; high dose (1 mM), day 6, pooled data, listed as N-acetyl-(R)-(−)-3-(4-aminophenyl)-2-methoxypropionic acid): inhibition
hair shaft elongation ([2]; lower concentrations (below 1 mM)): did not have an effect
hair cycle effect (catagen) ([3]; all concentrations, pooled data): induced catagen; also recorded: catagen-inducing effect
hair cycle effect (catagen) ([3]; analysis of the individual 5 experiments, percentage of each hair cycle stage, n=5): strong trend towards induction of catagen
hair cycle effect (catagen) ([3]; analysis of the individual 5 experiments, percentage of each hair cycle stage, n=5, listed as N-acetyl-(R)-(−)-3-(4-aminophenyl)-2-methoxypropionic acid): trend toward catagen
